Measurements from US9738636B2, “Fused heterocyclic compounds as selective BMP inhibitors” (Vanderbilt University, priority 2012, dated 2017).

System: BMP4
Experiment: BMP4 cell assay (BMP reporter)
Format: cell-based
Conditions: series of scaffold drawing 183 (R, R1)

With `c1cc(-c2cnc3cc(-c4ccc5c(c4)OCCO5)ccn23)ccn1` [Example 6, 7-(2,3-dihydrobenzo[b][1,4]dioxin-6-yl)-3-(pyridin-4-yl)imidazo[1,2-a]pyridine] the IC50 was 6.1 µM.
